Experimental data from patent US20250275993A1, “GLYCOSYLATION INHIBITORS AS THERAPEUTICS FOR STROKE” (The Regents of the University of California, priority 2022, published 2025).

How the values were obtained:
Assay type in all cases: cell-based, bovine
[1] = tested on: ERK, AKT, mTOR, CREB, ACC and eNOS; assay: Western blot of signal transduction pathways in BCECs
Description: (§1) Cells were allowed to reach-80% confluency in 12-well plates. […] At various time points, plates were taken out of the incubator and kept on ice. […] Lysates were collected and mixed with 4× Bolt LDS Sample Buffer (Novex, Carlsbad, CA) in the presence of Halt protease inhibitors and phosphatase inhibitor cocktail (ThermoFisher scientific, #NP0007). […] HUVECs (passage 6-8) were plated in EBM-2 basal medium (Lonza) with 0.2% FBS. Following overnight culture, cells were serum-starved in EBM-2 medium for 4 hrs prior to treatment with 50 ng/ml of VEGF165 or vehicle controls for various lengths. Equal amounts of protein lysates were analyzed by SDS-PAGE and blotted with the indicated antibodies. Proteins were transferred using Tris-Glycine buffer with 20% Methanol (Proteonomics grade) (Apex BioResearch Products). Membranes were first incubated with 5% milk in TBST, pH 7.6 (TEKnova, Hollister, CA), followed by blotting with primary and secondary antibodies. ECL anti-rabbit IgG, horseradish peroxidase linked whole antibody from donkey or sheep anti-mouse were obtained from GE Healthcare (UK limited). SuperSignal West Dura Extended Duration substrate was from ThermoFisher Scientific. In some cases, the same PVDF membranes were stripped by 8-min incubation in the Restore Plus Western Blot Stripping Buffer (ThermoFisher Scientific) to show total specific protein expression, followed by second stripping for (3-actin expression.

VEGFR2 = VEGFR2 western blot in BCECs (molecular mass, phosphorylation, PNGase F)
Description: Glycerol-free PNGase F was obtained from New England Biolabs (Ipswich, MA). Briefly, BCECs were lysed with NP-40 containing proteinase inhibitors (Thermo Scientific, Waltham, MA). Lysates were cleared at 4° C. at 5000 g for 25 mins. Total protein content was measured using Pierce BCA protein assay kit (Thermo Scientific). 20 mg of protein was mixed with 10× denaturing buffer and H2O to a total volume of […]. Glycoproteins were denatured at 100° C. for 10 mins, followed by adding Glycobuffer and PNGase F. The reaction was carried out at 37° C. for 2 hr.
as §1

JNK/c-jun = assay: Western blot of JNK pathway activation in BCECs
Description: Cells were allowed to reach-80% confluency in 12-well plates. […] At various time points, plates were taken out of the incubator and kept on ice. Cell monolayers were first washed once with ice-cold PBS before lysis with 250 μI of Pierce RIPA buffer (ThermoFisher Scientific, Rockford, IL) or use 50 mM Tris-HCl (pH 7.6), 150 mM NaCl, 10% Glycerol, 1% NP-40 containing protease/Phosphatase inhibitor cocktail (100×) (Cell signaling, #5872). Lysates were collected and mixed with 4× Bolt LDS Sample Buffer (Novex, Carlsbad, CA) in the presence of Halt protease inhibitors and phosphatase inhibitor cocktail (ThermoFisher scientific, #NP0007). The samples were subjected to SDS-PAGE (Bolt 4-12% Bis-Tris Plus, Invitrogen) using Bolt MES SDS running buffer or NuPAGE 3-8% Tris-Acetate gel using Tris-Acetate SDS running buffer (Novex). HUVECs (passage 6-8) were plated in EBM-2 basal medium (Lonza) with 0.2% FBS. Following overnight culture, cells were serum-starved in EBM-2 medium for 4 hrs prior to treatment with 50 ng/ml of VEGF165 or vehicle controls for various lengths. Equal amounts of protein lysates were analyzed by SDS-PAGE and blotted with the indicated antibodies. Proteins were transferred using Tris-Glycine buffer with 20% Methanol (Proteonomics grade) (Apex BioResearch Products). Membranes were first incubated with 5% milk in TBST, pH 7.6 (TEKnova, Hollister, CA), followed by blotting with primary and secondary antibodies. ECL anti-rabbit IgG, horseradish peroxidase linked whole antibody from donkey or sheep anti-mouse were obtained from GE Healthcare (UK limited). SuperSignal West Dura Extended Duration substrate was from ThermoFisher Scientific. In some cases, the same PVDF membranes were stripped by 8-min incubation in the Restore Plus Western Blot Stripping Buffer (ThermoFisher Scientific) to show total specific protein expression, followed by second stripping for (3-actin expression.

Bip, CHOP, ATF-6 = assay: Western blot of UPR responsive proteins in BCECs
[2] = tested on: BCEC confluent monolayers; assay: BCEC scratch assay
Description: BCECs (passage 6-10) and HUVEC (passage 6-8) were used in this assay. Cells were grown until about 80% confluency in 6-well plates, washed twice with PBS and then starved in serum-free DMEM (low Glucose, Hyclone) for 5 hrs before making a “scratch” using 1 ml tip. Cell monolayers were briefly washed once with serum-free media, followed by various treatments in media containing 1% FBS. 48 hrs later, the assay was stopped by adding 2 ml 4% paraformaldehyde. 20 min later, fixed cells were stained with 1 ml Crystal Violet (Sigma). Plates were washed gently under the running tap water and air-dried before taking pictures. Images were acquired by ZEISS Discovery […] microscopy equipped with […] camera. Quantification of wound closure was done using AxioVision LE Rel.4.4 software. Six images were taken for each sample and six measurements (in pixel) were made on each image using AxioVision LE Re1.4.4 software.

O=C1N[C@@H]2[C@@H](O)[C@@H](O)[C@H](O)[C@@H](CO)N2C1=O [Kif, Kifunensine, reference compound]
activation of ERK and AKT in BCECs by glycosylation inhibitors ([1]; 40 μM, FIG. 7E): significantly activate ERK and AKT | VEGFR2 molecular mass on SDS-PAGE after glycosylation inhibitors (VEGFR2; 24 hours): reduction in VEGFR2 molecular mass | activation of the JNK pathway by glycosylation inhibitors (JNK/c-jun; 40 μM, BCECs, FIG. 7E): able to activate the JNK pathway | Bip expression by glycosylation inhibitors (Bip, CHOP, ATF-6; media without growth factors for 24 hours): dose-dependent induction of Bip expression | gap closing in BCEC scratch assay by glycosylation inhibitors ([2]; over 48 hours relative to control): significant activity

N[C@H](C=O)[C@@H](O)[C@H](O)[C@H](O)CO [ManN, 2-Amino-2-deoxy-D-mannose]
activation of eNOS and ACC ([1]; 40 μM ManN, within 10-30 minutes): significantly activated | activation of ERK, AKT, mTOR and CREB ([1]; 40 μM, BCECs): activated | time to stimulation of ERK, AKT and CREB after adding ManN ([1]; 40 μM, BCECs): 10 to 30 min | activation of ERK, AKT and CREB with ManN plus VEGF vs either alone ([1]; both ManN and VEGF present): enhancement in activation | concentration from which VEGFR2 apparent molecular mass shifts (VEGFR2; BCECs and BRECs): ≥ 40 µM | duration of ManN effects on protein mass in the absence of exogenous ManN (VEGFR2; BCECs, FIG. 4E): at least 8 hours | protein mass of av integrin, Neuropilin-1, VE-cadherin and bFGFR1 (VEGFR2; ManN in BCEC): affected as well | VEGFR2 phosphorylation in response to VEGF (VEGFR2; ManN pre-treated cells): decreased | reversibility of VEGFR2 molecular mass change after ManN removal (VEGFR2; after 24 hours): completely reverse | ligand-independent VEGFR2 activation (VEGFR2; after ManN addition in BCECs): No ligand-independent VEGFR2 activation | dependence of ManN effects on VEGFR2 signaling (VEGFR2; experiments with axitinib): not dependent on VEGFR2 signaling | specificity of VEGFR2 molecular mass shift (VEGFR2; hexosamines and derivatives at 40 μM, 24 hours): unique to ManN among hexosamines and their derivatives | extent of loss of VEGFR2 glycosylation (PNGase F treatment) (VEGFR2; μM concentrations of ManN): not all the glycosylation on VEGFR2 was abolished | activation of JNK and downstream c-Jun (JNK/c-jun; BCECs switched to media without growth factors, 4 μM-4 mM, four hours): significantly activated by ManN in a dose-dependent manner | synergy between ManN and VEGF in promoting Bip or CHOP expression (Bip, CHOP, ATF-6; FIG. 5B): No synergy | time of CHOP induction (Bip, CHOP, ATF-6; ManN, dose-dependent): about 6 hours | Bip expression (Bip, CHOP, ATF-6; growing cells deprived of growth factor, evident at 24 and 48 hours): significantly turn on Bip expression in a concentration-dependent manner | closure of the scratched area vs control ([2]; 40 μM ManN or 50 ng/ml of VEGF, after 48 hours): significantly accelerated BCEC migration and/or proliferation | additivity of ManN and VEGF in scratch assay ([2]; both ManN and VEGF): additivity was observed
